US10011814B2, “Salt formulations for the fermentation of marine microorganisms” (Triphase Research and Development I Corp., priority 2006, dated 2018)
Where two headings read alike, the source gives them in different places.

Key:
[1] = test system: Salinispora tropica CNB440; conditions: CNB440, day 6 production culture
Experimental: (§1) The first seed cultures (100 mL medium) in 500-mL Erlenmeyer flasks were incubated for 96 hours before inoculating 5 mL of the first seed culture into the second seed medium with the same composition as the first seed medium. The second seed cultures (100 mL medium in 500-mL Erlenmeyer flask) were incubated for 48 hours before inoculating 5 mL of the second seed culture into the production medium (100 mL in a 500-mL Erlenmeyer flask).
(§2) Per liter of DI H2O, the production medium consisted of: 10 g Starch, 4 g Hy Soy, 4 g Yeast Extract, 1 g CaCO3, 40 mg Fe2(SO4)3, and 100 mg KBr. The production medium was then supplemented with a chemically defined salt formulation consisted of the following common salt components along with different levels of NaCl:
(§3) The NaCl levels used were 0, 5, 10, 15, 20, 24 and 30 g/L. About […], sterile XAD-7 resin slurry was added to the production cultures in a final concentration of 20 g/L. The production culture was then further incubated and harvested at various time points to determine productivity.

[2] = test system: Salinispora tropica CNB476; conditions: CNB476, day 6 production culture
Experimental: as §1, §2, §3

[3] = test system: Salinispora tropica NPS021184; conditions: NPS21184, day 6 production culture
Experimental: as §1, §2, §3

## [Cl-].[Na+] [NaCl]
[1]; NaCl 0 g/L
  Packed Cell Volume: 0%
[1]; NaCl 5 g/L
  Packed Cell Volume: 5%
[1]; NaCl 10 g/L
  Packed Cell Volume: 5%
[1]; NaCl 15 g/L
  Packed Cell Volume: 4%
[1]; NaCl 20 g/L
  Packed Cell Volume: 5%
[1]; NaCl 24 g/L
  Packed Cell Volume: 5%
[1]; NaCl 30 g/L
  Packed Cell Volume: 5%
[2]; NaCl 0 g/L
  Packed Cell Volume: 0%
[2]; NaCl 5 g/L
  Packed Cell Volume: 2%
[2]; NaCl 10 g/L
  Packed Cell Volume: 5%
[2]; NaCl 15 g/L
  Packed Cell Volume: 5%
[2]; NaCl 20 g/L
  Packed Cell Volume: 6%
[2]; NaCl 24 g/L
  Packed Cell Volume: 6%
[2]; NaCl 30 g/L
  Packed Cell Volume: 6%
[3]; NaCl 0 g/L
  Packed Cell Volume: 0%
[3]; NaCl 5 g/L
  Packed Cell Volume: 6%
[3]; NaCl 10 g/L
  Packed Cell Volume: 6%
[3]; NaCl 15 g/L
  Packed Cell Volume: 6%
[3]; NaCl 20 g/L
  Packed Cell Volume: 5%
[3]; NaCl 24 g/L
  Packed Cell Volume: 5%
[3]; NaCl 30 g/L
  Packed Cell Volume: 5%
